In US7605153B2, “Use of paullone derivatives for the production of medicaments for the treatment of mucoviscidosis and diseases related to protein addressing errors in cells” (Centre National de la Recherche Scientifique - CNRS, priority 2005, dated 2009):
Each block holds one compound with its values, some of them ahead of it.

What was measured:
delF508-CFTR [1] = target: T1, delF508-CFTR (Homo sapiens, UniProt P13569, DEL508-508); assay: iodide efflux, delF508 addressing in CF15 cells; assay type: cell-based; conditions: for effect of known CFTR inhibitors on delF508 activity after treatment with kenpaullone: CF15 cells treated with kenpaullone, iodide transport; for delF508-CFTR activity (iodide efflux) normalised to MPB-91 standard treatment: CF15 cells treated 2 hrs at 37° C., stimulation 10 μM Forskoline+30 μM Genisteine, 250 μM MPB-91 for 2 hrs = 100%, alsterpaullone 100 μM
T1 construct: CF15 human lung epithelial cells homozygous for the delF508 deletion; endogenous in cells; host or cells: CF15 human nasal/lung epithelial cells, homozygous delF508
T1 sequence (P13569 with tags, fused parts or gaps DEL508-508): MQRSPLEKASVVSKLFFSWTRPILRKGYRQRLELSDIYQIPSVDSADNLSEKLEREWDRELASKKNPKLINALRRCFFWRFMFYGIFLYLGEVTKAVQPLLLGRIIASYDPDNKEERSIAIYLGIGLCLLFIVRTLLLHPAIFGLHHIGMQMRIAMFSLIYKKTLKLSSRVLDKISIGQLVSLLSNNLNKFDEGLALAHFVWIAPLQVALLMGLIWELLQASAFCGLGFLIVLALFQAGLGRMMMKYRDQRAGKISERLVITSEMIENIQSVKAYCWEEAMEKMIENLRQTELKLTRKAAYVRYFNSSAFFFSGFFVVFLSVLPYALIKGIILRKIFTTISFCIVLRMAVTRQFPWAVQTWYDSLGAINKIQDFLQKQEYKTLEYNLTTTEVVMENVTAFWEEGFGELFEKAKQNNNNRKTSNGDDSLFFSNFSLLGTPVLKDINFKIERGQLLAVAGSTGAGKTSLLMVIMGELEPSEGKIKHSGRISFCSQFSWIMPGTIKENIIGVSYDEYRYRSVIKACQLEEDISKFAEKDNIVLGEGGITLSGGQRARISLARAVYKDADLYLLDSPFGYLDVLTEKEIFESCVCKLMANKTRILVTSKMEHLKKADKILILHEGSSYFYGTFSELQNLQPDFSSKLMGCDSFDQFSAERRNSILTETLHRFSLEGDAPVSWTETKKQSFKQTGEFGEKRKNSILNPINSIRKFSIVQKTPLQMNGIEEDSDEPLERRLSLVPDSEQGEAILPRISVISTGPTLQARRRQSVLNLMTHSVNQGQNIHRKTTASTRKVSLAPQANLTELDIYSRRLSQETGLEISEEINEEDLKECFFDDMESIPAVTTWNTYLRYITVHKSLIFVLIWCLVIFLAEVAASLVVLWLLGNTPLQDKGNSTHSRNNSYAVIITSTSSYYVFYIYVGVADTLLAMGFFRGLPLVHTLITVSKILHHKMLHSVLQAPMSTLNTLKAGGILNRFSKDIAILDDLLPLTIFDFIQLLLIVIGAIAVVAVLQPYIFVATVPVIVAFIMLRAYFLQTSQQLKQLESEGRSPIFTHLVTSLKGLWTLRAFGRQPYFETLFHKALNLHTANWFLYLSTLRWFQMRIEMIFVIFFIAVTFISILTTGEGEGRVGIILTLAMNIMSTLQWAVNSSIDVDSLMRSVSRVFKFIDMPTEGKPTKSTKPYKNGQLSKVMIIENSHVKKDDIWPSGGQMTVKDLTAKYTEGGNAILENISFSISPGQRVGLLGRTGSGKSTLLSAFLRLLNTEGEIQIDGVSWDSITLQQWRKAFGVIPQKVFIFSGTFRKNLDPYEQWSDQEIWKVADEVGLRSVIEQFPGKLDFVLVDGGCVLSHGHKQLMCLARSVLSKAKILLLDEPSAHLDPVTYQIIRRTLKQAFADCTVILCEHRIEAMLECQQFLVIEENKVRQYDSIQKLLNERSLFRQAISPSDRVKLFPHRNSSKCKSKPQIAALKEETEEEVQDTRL
Experimental: CF15 cells: CF15 cells are human nasal epithelial cells expressing the AF508-CFTR gene.
The cells are incubated in an appropriate medium in 24-well plates. […] The iodide equilibrates on either side of the cell membrane. The following steps are performed using a robot (MultiPROBE, Packard): the loading medium is rinsed with efflux medium in order to eliminate extracellular radioactivity. The supernatant is collected every minute into haemolysis tubes and the medium is replaced by an equivalent volume of medium (500 μl). No drug is added to the samples taken in the first three minutes in order to obtain a stable baseline characterising the passive exit of I ions. The 7 samples that follow are obtained in the presence of the molecule to be tested. At the end of the experiment, the cells are lysed by adding 500 μl of 0.1 N NaOH/0.1% SDS (30 min), which allows determining the level of radioactivity remaining inside the cell. The radioactivity present in the haemolysis tubes is measured as counts per minute (cpm) using a gamma counter (Cobra II, Packard). […] This iodide flux is represented by a graph. In order to quantify the iodide efflux due to administration of the tested molecule, the relative flux is calculated as follows in order to ignore the basal flux: Relative velocity (min^−1)=Rpeak−Rbasal. […] The results are presented in the form of a mean+/−SEM. Student's statistical test is used to compare the effect of the various drugs with the controls (the corresponding P<0.01 values are considered to be statistically significant).
The study of delF508-CFTR protein addressing is performed in the laboratory by using a combination of pharmacological, cellular imagery, biochemical and electrophysiological tests on CF15 human lung epithelial cells homozygous for the delF508 deletion. For each experiment, the addition of a cocktail (10 μM Forskoline+30 μM Genisteine) allows activation of the CFTR when the latter is localised at the membrane. This allows an iodide efflux to be observed if delF508 addressing has been restored.

wild-type CFTR [2] = target: T2, wild-type CFTR (Homo sapiens, UniProt P13569); assay: iodide efflux, CFTR activity in Calu-3 cells (test as activator); assay type: cell-based; conditions: n=8, controls forskoline 5 μM, MPB-91 250 μM
T2 construct: Calu-3 cells are human lung epithelial cells expressing the wild-type CFTR gene; endogenous in cells; host or cells: Calu-3 human lung epithelial cells
T2 sequence (P13569 whole entry): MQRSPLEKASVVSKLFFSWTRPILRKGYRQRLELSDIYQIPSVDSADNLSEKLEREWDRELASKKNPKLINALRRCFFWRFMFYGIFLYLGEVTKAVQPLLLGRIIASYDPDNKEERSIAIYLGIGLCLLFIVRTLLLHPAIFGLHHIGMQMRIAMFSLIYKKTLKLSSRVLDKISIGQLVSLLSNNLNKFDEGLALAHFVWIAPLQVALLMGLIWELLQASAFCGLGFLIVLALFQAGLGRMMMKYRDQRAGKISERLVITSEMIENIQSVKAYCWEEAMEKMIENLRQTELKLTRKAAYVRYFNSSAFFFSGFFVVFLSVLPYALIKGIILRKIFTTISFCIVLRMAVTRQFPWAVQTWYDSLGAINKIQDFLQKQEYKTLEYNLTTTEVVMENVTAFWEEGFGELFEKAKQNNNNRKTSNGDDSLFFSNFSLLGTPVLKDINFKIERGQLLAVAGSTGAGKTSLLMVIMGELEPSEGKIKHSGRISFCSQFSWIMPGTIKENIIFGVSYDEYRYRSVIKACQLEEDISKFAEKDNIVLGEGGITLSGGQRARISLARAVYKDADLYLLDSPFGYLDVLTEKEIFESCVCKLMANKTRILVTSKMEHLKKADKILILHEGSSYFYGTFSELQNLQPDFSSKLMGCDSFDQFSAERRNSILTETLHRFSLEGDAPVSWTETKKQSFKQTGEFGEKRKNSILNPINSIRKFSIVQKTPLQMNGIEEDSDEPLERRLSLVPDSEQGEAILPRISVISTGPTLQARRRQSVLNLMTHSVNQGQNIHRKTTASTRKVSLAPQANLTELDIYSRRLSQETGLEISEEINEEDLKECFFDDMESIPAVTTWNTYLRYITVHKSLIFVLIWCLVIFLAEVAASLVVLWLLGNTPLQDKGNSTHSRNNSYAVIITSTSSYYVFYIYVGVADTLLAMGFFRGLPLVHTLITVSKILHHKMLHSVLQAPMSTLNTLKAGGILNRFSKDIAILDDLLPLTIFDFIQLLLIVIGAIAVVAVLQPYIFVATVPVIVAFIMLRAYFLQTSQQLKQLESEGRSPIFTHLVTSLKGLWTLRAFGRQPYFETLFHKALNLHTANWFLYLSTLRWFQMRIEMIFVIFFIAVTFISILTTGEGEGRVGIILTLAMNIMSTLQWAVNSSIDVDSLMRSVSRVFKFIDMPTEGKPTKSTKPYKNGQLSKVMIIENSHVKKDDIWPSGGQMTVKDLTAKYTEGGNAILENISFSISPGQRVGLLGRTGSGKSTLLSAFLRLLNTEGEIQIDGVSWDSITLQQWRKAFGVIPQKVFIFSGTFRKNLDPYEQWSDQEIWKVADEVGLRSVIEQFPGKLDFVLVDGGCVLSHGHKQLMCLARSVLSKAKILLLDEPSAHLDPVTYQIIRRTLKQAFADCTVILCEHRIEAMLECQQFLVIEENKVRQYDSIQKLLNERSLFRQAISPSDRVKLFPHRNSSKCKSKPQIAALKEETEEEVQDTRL
Experimental: (§1) Calu-3 cells: Calu-3 cells are human lung epithelial cells expressing the wild-type CFTR gene.
(§2) Measurements of chloride ion transport in the cells were performed using the radioactive iodide efflux technique (Becq et al., Journal of Biological Chemistry 274, 27415-27425 (1999); Dormer et al., Journal of Cell Science 114, 4073-4081 (2001). The ^125I tracer is incorporated into the intracellular milieu. Then, the quantity of radiotracer coming out of the cell is then measured after adding various pharmacological agents. Iodide is used as a tracer of chloride ion transport. ^125I has the advantage of being short-lived compared to other markers such as ^35Cl (respective half-lives: […] and 300,000 years).
(§3) The cells are incubated in an appropriate medium in 24-well plates. The cells are rinsed twice with efflux medium (136.6 mM NaCl, 5.4 mM KCl, 0.3 mM KH2PO4, 0.3 mM NaH2PO4, 4.2 mM NaHCO3, 1.3 mM CaCl2, 0.5 mM MgCl2, 0.4 mM MgSO4, 10 mM HEPES, 5.6 mM D-glucose) in order to eliminate dead cells, which release radioactivity in an anarchic fashion. […] The following steps are performed using a robot (MultiPROBE, Packard): the loading medium is rinsed with efflux medium in order to eliminate extracellular radioactivity. […] The radioactivity present in the haemolysis tubes is measured as counts per minute (cpm) using a gamma counter (Cobra II, Packard). […]

[3] = in vivo; cited from earlier work
CHO-WT cells = assay: MTT cytotoxicity test; assay type: cell-based, Chinese Hamster; conditions: CHO-WT cells incubated 2 hrs, different concentrations
Experimental: CHO-WT cells: CHO (Chinese Hamster Ovary) cells are fibroblasts transfected with the wild-type CFTR gene (CFTR-WT). These cells will therefore overexpress the CFTR protein.
The MTT cytotoxicity test is a […] test based on the capacity of mitochondrial dehydrogenases to metabolise MTT (a yellow tetrazolium salt) into formazan (purple). The absorbance is proportional to the concentration of converted dye and can then be measured by spectrophotometry. The cells are incubated in 96-well microplates in the presence of the agent to be tested for 2 hours. Three controls are performed: 100% live cells: cells without any agent; 0% live cells: cells left under normal atmosphere; blank: medium without cells. The cells are rinsed with RPMI medium without phenol red in order for the colour of the medium not to interfere with absorbance measurements. They are then incubated for 4 hours with 100 μl RPMI solution supplemented with MTT (0.5 mg/ml). The medium is eliminated, 100 μl DMSO is added which permit to dissolve the converted dye (formazan). The absorbance is measured by spectrophotometry at 570 nm (purple); 630 nm (background noise). In order to ignore the background noise, the following calculation is performed: DOreelle=DO570nm−DO630nm. The results are then normalised with respect to the controls (100% and 0% live cells) and presented in the form of a mean+/−SEM. […]

wild-type CFTR [4] = target: T2, wild-type CFTR; assay: iodide efflux, CFTR addressing in Calu-3 cells after 2 hrs treatment; assay type: cell-based; conditions: Calu-3 cells treated for 2 hrs, 100 μM
Experimental: as §1, §2, §3

GSK-3 = conditions: cited from earlier work
delF508-CFTR [5] = target: T1, delF508-CFTR; assay: immunolabelling, cellular localisation of delF508-CFTR in CF15 cells; assay type: cell-based; conditions: 100 μM
Experimental: Immunolabelling allows visualising the cellular localisation of the CFTR protein by an anti-CFTR primary antibody (Ab), and a secondary Cy3-labelled fluorescent antibody directed against the primary antibody.
The cells are first seeded on cover slips in an appropriate culture medium. The cells are then washed 3 times with TBS (157 mM NaCl, […] Tris base, pH 7.4) of 5 min. each time and then fixed by adding 3% TBS-paraformaldehyde for 20 min. After 3 washes with TBS (5 min), the cells are incubated with 0.1% TBS-triton (10 min) to make holes in the cell membrane, and then washed 3 times with TBS before being exposed to 0.5% TBS-BSA-0.05% saponin for 1 hr. The cells are then incubated with the primary anti-CFTR C terminal antibody (2 μg/ml) for 1 hr. The cells are washed 3 times (5 min. each) with TBS-BSA-saponin before incubating with the GAM-cy3 secondary antibody ( 1/400) for 1 hr. After 2 TBS washes (5 min. each), the nuclei are labelled by incubating with Topro3 ( 1/1,000) for 5 min. Finally, the cover slips can be mounted on a glass slide after 3 final TBS washes of 5 min. each. The slides are observed with a confocal microscope (Bio-Rad) using laser excitation at appropriate wave-lengths. In order to differentiate Cy3 from Topro3 labelling, the colour of the Topor3 fluorescence has been changed to blue (colour of the nuclei). […]

SMILES: O=S(=O)(O)c1cc(N=C=S)ccc1C=Cc1ccc(N=C=S)cc1S(=O)(=O)O [DIDS]
effect of known CFTR inhibitors on delF508 activity after treatment with kenpaullone (delF508-CFTR [1]): insensitive

SMILES: COc1ccc(Cl)cc1C(=O)NCCc1ccc(S(=O)(=O)NC(=O)NC2CCCCC2)cc1 [glibenclamide]
effect of known CFTR inhibitors on delF508 activity after treatment with kenpaullone (delF508-CFTR [1]): blocked

SMILES: O=C1Cc2c([nH]c3ccc(Br)cc23)-c2ccccc2N1 [kenpaullone]
activation of wild-type CFTR or other anionic transporter (wild-type CFTR [2]): not found to be an activator | EC50 (delF508-CFTR [1]): 22 ± 1.7 µM | delF508-CFTR activity (iodide efflux) normalised to MPB-91 standard treatment (delF508-CFTR [1]): higher than that obtained with MPB-91 | toxicity in animals [3]: only very slight toxicity | cell viability (MTT) (CHO-WT cells): viable at all concentrations | CFTR activity after treatment (wild-type CFTR addressing) (wild-type CFTR [4]): not significantly different from the controls | selectivity for GSK-3 inhibition (GSK-3): highly selective | localisation of delF508 protein (delF508-CFTR [5]): redirect the delF508 protein towards the membrane

Second part, the compound after the results:

effect of known CFTR inhibitors on delF508 activity after treatment with kenpaullone (delF508-CFTR [1]): blocked
SMILES: O=C(O)c1ccccc1Nc1ccccc1 [DPC]

delF508-CFTR activity (iodide efflux) normalised to MPB-91 standard treatment (delF508-CFTR [1]): no effect
SMILES: O=C1Cc2c([nH]c3ccc([N+](=O)[O-])cc23)-c2ccccc2N1 [alsterpaullone]
